Assay results as given in patent US5591714A, “Derivatives of A82846” (priority 1994, dated 1997).
Values after ≈ are worked out from the molar mass of the structure shown. Read-outs that look alike come from different tables or passages of the source.

How the values were obtained:
Escherichia coli EC14 = experiment: MIC, standard agar-dilution assay; assay type: cell-based
Protocol: (§1) The formula I compounds have in vitro and in vivo activity against Gram-positive pathogenic bacteria. The MIC's were determined using a standard agar-dilution assays.

Escherichia coli N10 = experiment: MIC, standard agar-dilution assay; assay type: cell-based
Protocol: as §1

Escherichia coli TEM = experiment: MIC, standard agar-dilution assay; assay type: cell-based
Protocol: as §1

[1] = test system: Haemophilus influenzae 76; experiment: MIC, standard agar-dilution assay; assay type: cell-based
Protocol: as §1

[2] = test system: Haemophilus influenzae C.L.; experiment: MIC, standard agar-dilution assay; assay type: cell-based
Protocol: as §1

[3] = test system: Klebsiella pneumoniae KAE; experiment: MIC, standard agar-dilution assay; assay type: cell-based
Protocol: as §1

[4] = test system: Klebsiella pneumoniae X26; experiment: MIC, standard agar-dilution assay; assay type: cell-based
Protocol: as §1

[5] = test system: Klebsiella pneumoniae X68; experiment: MIC, standard agar-dilution assay; assay type: cell-based
Protocol: as §1

[6] = test system: Staphylococcus aureus NRRL X1.1; experiment: MIC, standard agar-dilution assay; assay type: cell-based
Protocol: as §1

[7] = test system: Staphylococcus aureus V41; experiment: MIC, standard agar-dilution assay; assay type: cell-based
Protocol: as §1

[8] = test system: Staphylococcus aureus X400; experiment: MIC, standard agar-dilution assay; assay type: cell-based
Protocol: as §1

[9] = test system: Staphylococcus epidermidis 222; experiment: MIC, standard agar-dilution assay; assay type: cell-based
Protocol: as §1

[10] = test system: Staphylococcus epidermidis EPI270; experiment: MIC, standard agar-dilution assay; assay type: cell-based
Protocol: as §1

[11] = test system: Streptococcus pyogenes C203; experiment: MIC, standard agar-dilution assay; assay type: cell-based
Protocol: as §1

[12] = test system: Staphylococcus aureus S13E; assay type: cell-based
Protocol: as §1

[13] = test system: Streptococcus pneumoniae Park 1; assay type: cell-based
Protocol: as §1

Enterococcus faecium X66 = experiment: MIC, standard agar-dilution assay; assay type: cell-based
Protocol: as §1
^b Formerly Streptococcus faecium X66

[14] = test system: Enterococcus faecalis 2041; experiment: MIC, standard agar-dilution assay; assay type: cell-based
Protocol: as §1
^c Formerly Streptococcus faecalis 2041

Staphylococcus aureus = experiment: In vivo activity, experimentally infected mice (ED50); details: Staphylococcus aureus infection; doses administered subcutaneously to mice 1 and 4 hours postinfection
Streptococcus pyogenes = experiment: as above; details: Streptococcus pyogenes infection; doses administered subcutaneously to mice 1 and 4 hours postinfection
Streptococcus pneumoniae = experiment: as above; details: Streptococcus pneumoniae infection; doses administered subcutaneously to mice 1 and 4 hours postinfection
[15] = test system: vancomycin-resistant (Vanco^r) E. faecium and E. faecalis; experiment: Susceptibility of vancomycin-resistant enterococci, agar-dilution MIC; assay type: cell-based; details: for Geometric Mean MIC, Vanco^r Strains: n = 25 strains, end points read after 24-hour incubation
Protocol: (§2) End points were read after 24-hour incubation. The ratio was calculated by dividing the mean MIC of the compound against the vancomycin-resistant strains by the mean MIC of the compound against the vancomycin-susceptible strains.

[16] = test system: vancomycin-susceptible (Vanco^s) E. faecium and E. faecalis; experiment: Susceptibility of vancomycin-susceptible enterococci, agar-dilution MIC; assay type: cell-based; details: n = 34 strains; end points read after 24-hour incubation
Protocol: as §2

[17] = test system: six vancomycin-susceptible strains of staphylococci and enterococci; experiment: Effect of human serum on the MIC, serial dilution assay; assay type: cell-based; details: for MIC determined in absence of added serum: absence (-) of human serum; for MIC determined in presence of human serum: broth supplemented with human serum to 40%
Excerpt: Another important property of the formula I compounds is the low binding of the compounds to serum proteins when compared with other glycopeptide antibiotics. […] The ratio of the MIC measured in the presence of added serum to the MIC measured in the absence of added serum ("ratio") is an indication of the degree of serum binding. […] A ratio that is greater than one, for example about ten, indicates the compound has a high degree of serum binding.

[18] = indication of the degree of serum binding

SMILES | MIC (Escherichia coli EC14) [µg/mL] | MIC (Escherichia coli N10) [µg/mL] | MIC (Escherichia coli TEM) [µg/mL] | MIC [1] [µg/mL] | MIC [2] [µg/mL] | MIC [3] [µg/mL] | MIC [4] [µg/mL] | MIC [5] [µg/mL] | MIC [6] | MIC [7] | MIC [8] | MIC [9] | MIC [10] | MIC [11] | MIC [13] | Ratio (mean MIC vancomycin-resistant strains / mean MIC vancomycin-susceptible strains) [15] | Geometric Mean MIC, Vanco^r Strains [15] [µg/mL] | Geometric Mean MIC, Vanco^s Strains [16] [µg/mL] | MIC determined in absence of added serum [17] | MIC determined in presence of human serum [17] | further results
CNC(CC(C)C)C(=O)NC1C(=O)NC(CC(N)=O)C(=O)NC2C(=O)NC3C(=O)NC(C(=O)NC(C(=O)O)c4cc(O)cc(O)c4-c4cc3ccc4O)C(OC3CC(C)(N)C(O)C(C)O3)c3ccc(c(Cl)c3)Oc3cc2cc(c3OC2OC(CO)C(O)C(O)C2OC2CC(C)(NCc3ccc(Br)cc3)C(O)C(C)O2)Oc2ccc(cc2Cl)C1O (centres unmarked) [Compound 58] | > 128 | > 128 | > 128 | > 128 | > 128 | > 128 | > 128 | > 128 | .5 µg/mL (≈ 0.284 µM) | .5 µg/mL (≈ 0.284 µM) | 1 µg/mL (≈ 0.568 µM) | .5 µg/mL (≈ 0.284 µM) | 2 µg/mL (≈ 1.14 µM) | .125 µg/mL (≈ 0.071 µM) | .125 µg/mL (≈ 0.071 µM) | 4.6 | 3.1 | 0.67 | 0.43 | 1.0 | MIC [12]: 1 µg/mL (≈ 0.568 µM); MIC (Enterococcus faecium X66): .25 µg/mL (≈ 0.142 µM); MIC [14]: .25 µg/mL (≈ 0.142 µM); ED50 (Staphylococcus aureus): 0.38 mg/kg/2; ED50 (Streptococcus pyogenes): 0.05 mg/kg/2; ED50 (Streptococcus pneumoniae): 0.08 mg/kg/2; ratio of the MIC in the presence of added serum to the MIC in the absence of added serum [17, 18]: 2.3
CNC(CC(C)C)C(=O)NC1C(=O)NC(CC(N)=O)C(=O)NC2C(=O)NC3C(=O)NC(C(=O)NC(C(=O)O)c4cc(O)cc(O)c4-c4cc3ccc4O)C(OC3CC(C)(N)C(O)C(C)O3)c3ccc(c(Cl)c3)Oc3cc2cc(c3OC2OC(CO)C(O)C(O)C2OC2CC(C)(NCc3ccc(Cl)cc3)C(O)C(C)O2)Oc2ccc(cc2Cl)C1O (centres unmarked) [Compound 60] | > 128 | > 128 | > 128 | > 128 | > 128 | > 128 | > 128 | > 128 | .125 µg/mL (≈ 0.0728 µM) | .25 µg/mL (≈ 0.146 µM) | .5 µg/mL (≈ 0.291 µM) | .25 µg/mL (≈ 0.146 µM) | .5 µg/mL (≈ 0.291 µM) | .06 µg/mL (≈ 0.0349 µM) | .06 µg/mL (≈ 0.0349 µM) | 5.5 | 3.6 | 0.65 | 0.76 | 1.5 | MIC (Enterococcus faecium X66): .25 µg/mL (≈ 0.146 µM); MIC [14]: .25 µg/mL (≈ 0.146 µM); ED50 (Staphylococcus aureus): 0.25 mg/kg/2; ED50 (Streptococcus pyogenes): 0.06 mg/kg/2; ED50 (Streptococcus pneumoniae): 0.08 mg/kg/2; ratio of the MIC in the presence of added serum to the MIC in the absence of added serum [17, 18]: 2.0
CN[C@H](CC(C)C)C(=O)N[C@H]1C(=O)N[C@@H](CC(N)=O)C(=O)N[C@H]2C(=O)N[C@H]3C(=O)N[C@H](C(=O)N[C@H](C(=O)O)c4cc(O)cc(O)c4-c4cc3ccc4O)[C@H](O[C@H]3C[C@](C)(N)[C@@H](O)[C@H](C)O3)c3ccc(c(Cl)c3)Oc3cc2cc(c3O[C@@H]2O[C@H](CO)[C@@H](O)[C@H](O)[C@H]2O[C@H]2C[C@](C)(N)[C@@H](O)[C@H](C)O2)Oc2ccc(cc2Cl)[C@H]1O [Compound A82846B, A82846B, reference compound] |  |  |  |  |  |  |  |  |  |  |  |  |  |  |  | 18.4 | 9.4 | 0.51 | 0.5 | 0.75 | ratio of the MIC in the presence of added serum to the MIC in the absence of added serum [17]: 1.5
